Measurements published in patent publication US7622634B2 (priority 2001, dated 2009).

What was measured:
[1] = molecular target: Pdr5p (Saccharomyces cerevisiae, UniProt P33302); conditions: Kolaczkowski et al. 1996, 1998; cited from earlier work
[2] = tested on: Wild type BY-2 cells; conditions: MSST plates, growth evaluated after 15 days at 26° C.
[3] = tested on: Transgenic BY-2 cells expressing AtPDR1; conditions: compared to the control GUS expressing line
[4] = tested on: wild type yeast; conditions: YPD plates, growth evaluated after two days at 28° C.
[5] = tested on: tobacco BY-2 cells; conditions: Nicotiana tabacum
[6] = tested on: BY-2 cell lines expressing the different yeast Pdr5 transporters; conditions: compared to the control GUS-expressing lines
[7] = tested on: yeast AD3 strain expressing AtPDR1; conditions: YPD plates containing the alkaloid
[8] = tested on: HmPDR1; test: Quantitative RT-PCR of HmPDR1 expression in hairy roots; format: cell-based, Hyoscyamus muticus; conditions: 1 mM CdCl2, H2O as a control
Description: FIG. 3: HmPDR1 expression is induced by CdCl2. Quantitative RT-PCR analysis of HmPDR1 in total RNA from H. muticus hairy roots treated with 1 mM CdCl2 or H2O as a control. Ethidium bromide-stained rRNA is used as a control. The fold increase in the ratio of HmPDR1 transcript to rRNA fluorescence, relative to the value at time point zero, is given below the panels. Time after elicitation is indicated in hours.
To confirm the postulated relationship between the expression of ABC transporter genes and the CdCl2 induced release of alkaloids we performed an expression analysis of the HmPDR1 gene in CdCl2 treated Hyoscyamus hairy roots (FIG. 3).

[9] = tested on: BY-2 cells transformed with pK7WGD2-ScPDR5-US50; test: Hyoscyamine-induced cell death (Evans blue) in the ScPDR5-US50 line; format: cell-based, Nicotiana tabacum; conditions: 30 mM hyoscyamine, US50 lines compared to GUS control line
Description: FIG. 2: Hyoscyamine-induced cell death in transformed BY-2 cells. […] Cell death was assayed at two time points (6 hours and 24 hours) by Evans blue staining and is indicated as the fold increase in optical density at OD600 relative to the value at the start of the experiment. Values are the mean of three independent experiments. GUS, US50, W303 and AT represent BY-2 cell lines transformed with pK7WGD2-GUS, pK7WGD2-ScPDR5-US50, pK7WGD2-ScPDR5-W303 and pK7WGD2-AtPDR1 respectively.

Pdr5p, sequence (P33302 whole entry): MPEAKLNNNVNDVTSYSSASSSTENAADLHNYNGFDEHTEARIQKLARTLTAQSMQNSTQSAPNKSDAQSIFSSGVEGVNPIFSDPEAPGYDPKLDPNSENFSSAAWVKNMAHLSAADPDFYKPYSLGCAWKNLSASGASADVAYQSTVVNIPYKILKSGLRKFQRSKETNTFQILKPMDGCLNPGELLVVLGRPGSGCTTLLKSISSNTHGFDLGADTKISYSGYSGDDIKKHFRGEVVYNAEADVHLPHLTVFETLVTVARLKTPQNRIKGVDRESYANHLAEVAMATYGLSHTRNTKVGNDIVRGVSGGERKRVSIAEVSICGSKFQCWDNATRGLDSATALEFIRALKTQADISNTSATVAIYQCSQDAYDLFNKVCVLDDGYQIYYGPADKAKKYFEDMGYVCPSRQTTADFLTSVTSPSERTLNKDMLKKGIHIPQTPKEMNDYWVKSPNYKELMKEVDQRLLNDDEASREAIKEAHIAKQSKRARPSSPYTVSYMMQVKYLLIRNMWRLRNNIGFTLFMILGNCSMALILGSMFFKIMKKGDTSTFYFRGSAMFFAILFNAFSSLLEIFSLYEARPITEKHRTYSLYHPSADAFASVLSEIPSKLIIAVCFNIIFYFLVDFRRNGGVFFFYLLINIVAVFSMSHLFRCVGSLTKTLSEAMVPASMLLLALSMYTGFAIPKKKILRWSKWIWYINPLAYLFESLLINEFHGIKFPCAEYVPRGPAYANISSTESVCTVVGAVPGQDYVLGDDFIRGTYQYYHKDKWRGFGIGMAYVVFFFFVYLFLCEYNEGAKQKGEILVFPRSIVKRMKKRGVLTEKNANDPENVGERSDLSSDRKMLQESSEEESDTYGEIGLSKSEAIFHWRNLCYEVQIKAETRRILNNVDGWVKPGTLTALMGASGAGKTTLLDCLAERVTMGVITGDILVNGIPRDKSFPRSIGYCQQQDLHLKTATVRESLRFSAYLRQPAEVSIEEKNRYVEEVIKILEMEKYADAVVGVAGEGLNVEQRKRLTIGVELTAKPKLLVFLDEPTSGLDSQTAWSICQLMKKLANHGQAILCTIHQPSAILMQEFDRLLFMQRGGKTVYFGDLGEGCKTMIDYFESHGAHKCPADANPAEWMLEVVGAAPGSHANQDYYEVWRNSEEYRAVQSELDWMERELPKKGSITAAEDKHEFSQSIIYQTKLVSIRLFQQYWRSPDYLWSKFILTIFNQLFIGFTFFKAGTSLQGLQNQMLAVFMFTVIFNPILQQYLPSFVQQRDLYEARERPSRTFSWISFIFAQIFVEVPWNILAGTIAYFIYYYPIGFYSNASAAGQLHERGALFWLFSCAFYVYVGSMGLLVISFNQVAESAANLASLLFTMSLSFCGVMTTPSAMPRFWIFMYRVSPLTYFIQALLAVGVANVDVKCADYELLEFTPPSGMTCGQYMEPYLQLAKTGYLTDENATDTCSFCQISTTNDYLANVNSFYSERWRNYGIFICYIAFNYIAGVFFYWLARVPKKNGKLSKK

CC(=O)O[C@H]1C(=O)[C@@]2(C)[C@H]([C@H](OC(=O)c3ccccc3)[C@]3(O)C[C@H](OC(=O)[C@H](O)[C@@H](NC(=O)c4ccccc4)c4ccccc4)C(C)=C1C3(C)C)[C@]1(OC(C)=O)CO[C@@H]1C[C@@H]2O [taxol]
substrate for Pdr5p mediated multidrug transport [1]: substrates

CN1CCCC1c1cccnc1 (stereo not drawn) [nicotine]
level tolerated without severe growth problems [2]: 3000 µM | tolerance of AtPDR1 transgenic BY-2 cells [3]: enhanced tolerance | level tolerated by wild type yeast [4]: 15 mM | level causing the death of all suspension cultured tobacco cells [5]: 20000 µM | tolerance in growth performance assay [6]: increased tolerance | growth of the pdr5 mutant strain expressing AtPDR1 on the alkaloid [7]: restore the growth

[Cl][Cd][Cl] [CdCl2]
HmPDR1 expression [8]: upregulated

CC[C@]1(O)C[C@@H]2CN(CCc3c([nH]c4ccccc34)[C@@](C(=O)OC)(c3cc4c(cc3OC)N(C)[C@H]3[C@@](O)(C(=O)OC)[C@H](OC(C)=O)[C@]5(CC)C=CCN6CC[C@]43[C@@H]65)C2)C1 [vinblastine]
substrate for Pdr5p mediated multidrug transport [1]: substrates

CC[C@]1(O)C[C@H]2CN(CCc3c([nH]c4ccccc34)[C@@](C(=O)OC)(c3cc4c(cc3OC)N(C=O)[C@H]3[C@@](O)(C(=O)OC)[C@H](OC(C)=O)[C@]5(CC)C=CCN6CC[C@]43[C@@H]65)C2)C1 [vincristine]
substrate for Pdr5p mediated multidrug transport [1]: substrates

CN1[C@@H]2C[C@@H](OC(=O)[C@H](CO)c3ccccc3)C[C@H]1[C@@H]1O[C@@H]12 [scopolamine]
level tolerated by wild type yeast [4]: 100 mM

CN1[C@@H]2CC[C@H]1C[C@@H](OC(=O)[C@H](CO)c1ccccc1)C2 [hyoscyamine]
level tolerated without severe growth problems [2]: 30000 µM | level tolerated by wild type yeast [4]: 50 mM | decrease in hyoscyamine induced cell death [9]: 15% | level causing the death of all suspension cultured tobacco cells [5]: 50000 µM
